# Data: patent publication US20260007681A1, “INDOLE DERIVATIVES AS ESTROGEN RECEPTOR DEGRADERS” (REGENTS OF THE UNIVERSITY OF MICHIGAN, priority 2022, published 2026)
# Biological target: ER (Homo sapiens (Human), UniProt P03372)
# Assay: Western blot analysis (Compounds B1-B278)
# Type: cell-based
# Conditions: ER degradation by traditional Western blot; DC50 classes
# Description: Western Blot Analysis. The cells that are treated with the compounds are lysed in Radioimmunoprecipitation Assay Protein Lysis and Extraction Buffer (e.g., 25 mmol/L Tris.HCl, pH 7.6, 150 mmol/L NaCl, 1% Nonidet P-40, 1% sodium deoxycholate, and 0.1% sodium dodecyl sulfate) containing proteinase inhibitor cocktail. Equal amounts of total protein are electrophoresed through 10% SDS-polyacrylamide gels after determination of protein concentration by BCA assay. The separated protein bands are transferred onto PVDF membranes and blotted against different antibodies. The blots are scanned, and the band intensities are quantified (e.g., by using GelQuant.NET software provided by biochemlabsolutions.com). The relative mean intensity of target proteins is expressed after normalization to the intensity of glyceraldehyde-3-phosphate dehydrogenase bands.
# Western Blot Analysis. Western blot analysis was performed essentially as described previously. The cells treated with indicated compounds were lysed in Radioimmunoprecipitation Assay Protein Lysis and Extraction Buffer (25 mmol/L Tris.HCl, pH 7.6, 150 mmol/L NaCl, 1% Nonidet P-40, 1% sodium deoxycholate, and 0.1% sodium dodecyl sulfate) containing proteinase inhibitor cocktail (Roche Diagnostics, Mannheim, Germany). Equal amounts of total protein were electrophoresed through 10% SDS-polyacrylamide gels after determination of protein concentration by BCA assay (Fisher Scientific, Pittsburgh, PA). The separated protein bands were transferred onto PVDF membranes (GE Healthcare Life Sciences, Marlborough, MA) and blotted against different antibodies, as indicated. The blots were scanned, and the band intensities were quantified using GelQuant.NET software provided by biochemlabsolutions.com. The relative mean intensity of target proteins was expressed after normalization to the intensity of glyceraldehyde-3-phosphate dehydrogenase bands.
# Sequence of ER (P03372 whole entry): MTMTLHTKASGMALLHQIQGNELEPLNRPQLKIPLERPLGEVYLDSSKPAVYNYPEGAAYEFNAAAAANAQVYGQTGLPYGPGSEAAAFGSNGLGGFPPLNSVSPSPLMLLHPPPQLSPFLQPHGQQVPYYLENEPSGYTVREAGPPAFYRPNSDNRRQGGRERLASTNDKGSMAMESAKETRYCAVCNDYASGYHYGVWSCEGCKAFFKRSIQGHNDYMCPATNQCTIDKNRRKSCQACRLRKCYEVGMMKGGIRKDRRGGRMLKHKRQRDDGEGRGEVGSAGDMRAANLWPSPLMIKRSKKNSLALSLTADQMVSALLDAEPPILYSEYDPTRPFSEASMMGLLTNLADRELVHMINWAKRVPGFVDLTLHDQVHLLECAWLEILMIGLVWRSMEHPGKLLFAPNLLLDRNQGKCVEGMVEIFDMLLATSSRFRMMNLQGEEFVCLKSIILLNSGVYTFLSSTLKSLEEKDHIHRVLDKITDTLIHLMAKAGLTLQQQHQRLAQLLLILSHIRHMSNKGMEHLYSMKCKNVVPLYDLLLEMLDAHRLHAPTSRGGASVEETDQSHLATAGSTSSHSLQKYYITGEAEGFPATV
row,Structure (SMILES),Traditional Western Degradation Potency
1,"C[C@@H]1Cc2c([nH]c3ccccc23)[C@@H](c2c(F)cc(N3CCCC4(CCN(C(=O)CN5Cc6cc7c(cc6C5)C(=O)N(C5CCC(=O)NC5=O)C7=O)C4)C3)cc2F)N1CC(F)F (stereo partly drawn) [Compound B21, 6-(2-(7-(4-((1R,3R)-2-(2,2-difluoroethyl)-3-methyl-2,3,4,9-tetrahydro-1H-pyrido[3,4-b]indol-1-yl)-3,5-difluorophenyl)-2,7-diazaspiro[4.5]decan-2-yl)-2-oxoethyl)-2-(2,6-dioxopiperidin-3-yl)-6,7-dihydropyrrolo[3,4-f]isoindole-1,3(2H,5H)-dione]",C (“C”: >100 nM)
2,"C[C@@H]1Cc2c([nH]c3ccccc23)[C@@H](c2c(F)cc(N3CCC4(CCN(C(=O)CN5Cc6cc7c(cc6C5)C(=O)N(C5CCC(=O)NC5=O)C7=O)C4)C3)cc2F)N1CC(F)F (stereo partly drawn) [Compound B22, 6-(2-(7-(4-((1R,3R)-2-(2,2-difluoroethyl)-3-methyl-2,3,4,9-tetrahydro-1H-pyrido[3,4-b]indol-1-yl)-3,5-difluorophenyl)-2,7-diazaspiro[4.4]nonan-2-yl)-2-oxoethyl)-2-(2,6-dioxopiperidin-3-yl)-6,7-dihydropyrrolo[3,4-f]isoindole-1,3(2H,5H)-dione]",B (“B”: 10-100 nM)
3,"C[C@H]1Cc2c([nH]c3ccccc23)[C@H](c2c(F)cc(N3CC4(CCCN(C(=O)CN5Cc6cc7c(cc6C5)C(=O)N(C5CCC(=O)NC5=O)C7=O)C4)C3)cc2F)N1CC(F)F (stereo partly drawn) [Compound B23, 6-(2-(2-(4-((1S,3S)-2-(2,2-difluoroethyl)-3-methyl-2,3,4,9-tetrahydro-1H-pyrido[3,4-b]indol-1-yl)-3,5-difluorophenyl)-2,6-diazaspiro[3.5]nonan-6-yl)-2-oxoethyl)-2-(2,6-dioxopiperidin-3-yl)-6,7-dihydropyrrolo[3,4-f]isoindole-1,3(2H,5H)-dione]",B (“B”: 10-100 nM)
4,"C[C@@H]1Cc2c([nH]c3ccccc23)[C@@H](c2c(F)cc(N3CCCC4(CN(C(=O)CN5Cc6cc7c(cc6C5)C(=O)N(C5CCC(=O)NC5=O)C7=O)C4)C3)cc2F)N1CC(F)F (stereo partly drawn) [Compound B24, 6-(2-(6-(4-((1R,3R)-2-(2,2-difluoroethyl)-3-methyl-2,3,4,9-tetrahydro-1H-pyrido[3,4-b]indol-1-yl)-3,5-difluorophenyl)-2,6-diazaspiro[3.5]nonan-2-yl)-2-oxoethyl)-2-(2,6-dioxopiperidin-3-yl)-6,7-dihydropyrrolo[3,4-f]isoindole-1,3(2H,5H)-dione]",B (“B”: 10-100 nM)
5,"C[C@@H]1Cc2c([nH]c3ccccc23)[C@@H](c2c(F)cc(N3CC4(CN(C(=O)CN5Cc6cc7c(cc6C5)C(=O)N(C5CCC(=O)NC5=O)C7=O)C4)C3)cc2F)N1CC(F)F (stereo partly drawn) [Compound B25, 6-(2-(6-(4-((1R,3R)-2-(2,2-difluoroethyl)-3-methyl-2,3,4,9-tetrahydro-1H-pyrido[3,4-b]indol-1-yl)-3,5-difluorophenyl)-2,6-diazaspiro[3.3]heptan-2-yl)-2-oxoethyl)-2-(2,6-dioxopiperidin-3-yl)-6,7-dihydropyrrolo[3,4-f]isoindole-1,3(2H,5H)-dione]",A (“A”: <10 nM)
6,"C[C@@H]1Cc2c([nH]c3ccccc23)[C@@H](c2c(F)cc(N3CCC4(CN(C(=O)CN5Cc6cc7c(cc6C5)C(=O)N(C5CCC(=O)NC5=O)C7=O)C4)C3)cc2F)N1CC(F)F (stereo partly drawn) [Compound B26, 6-(2-(6-(4-((1R,3R)-2-(2,2-difluoroethyl)-3-methyl-2,3,4,9-tetrahydro-1H-pyrido[3,4-b]indol-1-yl)-3,5-difluorophenyl)-2,6-diazaspiro[3.4]octan-2-yl)-2-oxoethyl)-2-(2,6-dioxopiperidin-3-yl)-6,7-dihydropyrrolo[3,4-f]isoindole-1,3(2H,5H)-dione]",A (“A”: <10 nM)
7,"C[C@H]1Cc2c([nH]c3ccccc23)[C@H](c2c(F)cc(N3CC4(CCN(C(=O)CN5Cc6cc7c(cc6C5)C(=O)N(C5CCC(=O)NC5=O)C7=O)CC4)C3)cc2F)N1CC(F)F (stereo partly drawn) [Compound B27, 6-(2-(2-(4-((1S,3S)-2-(2,2-difluoroethyl)-3-methyl-2,3,4,9-tetrahydro-1H-pyrido[3,4-b]indol-1-yl)-3,5-difluorophenyl)-2,7-diazaspiro[3.5]nonan-7-yl)-2-oxoethyl)-2-(2,6-dioxopiperidin-3-yl)-6,7-dihydropyrrolo[3,4-f]isoindole-1,3(2H,5H)-dione]",A (“A”: <10 nM)
8,"C[C@H]1Cc2c([nH]c3ccccc23)[C@H](c2c(F)cc(N3CC4(CCN(C(=O)CN5Cc6cc7c(cc6C5)C(=O)N(C5CCC(=O)NC5=O)C7)CC4)C3)cc2F)N1CC(F)F (stereo partly drawn) [Compound B28, 3-(6-(2-(2-(4-((1S,3S)-2-(2,2-difluoroethyl)-3-methyl-2,3,4,9-tetrahydro-1H-pyrido[3,4-b]indol-1-yl)-3,5-difluorophenyl)-2,7-diazaspiro[3.5]nonan-7-yl)-2-oxoethyl)-1-oxo-3,5,6,7-tetrahydropyrrolo[3,4-f]isoindol-2(1H)-yl)piperidine-2,6-dione]",A (“A”: <10 nM)
9,"C[C@@H]1Cc2c([nH]c3ccccc23)[C@@H](c2c(F)cc(N3CCC(N4CCC(CN5Cc6cc7c(cc6C5)C(=O)N(C5CCC(=O)NC5=O)C7)CC4)CC3)cc2F)N1CC(F)F (stereo partly drawn) [Compound B29, 3-(6-((1′-(4-((1R,3R)-2-(2,2-difluoroethyl)-3-methyl-2,3,4,9-tetrahydro-1H-pyrido[3,4-b]indol-1-yl)-3,5-difluorophenyl)-[1,4′-bipiperidin]-4-yl)methyl)-1-oxo-3,5,6,7-tetrahydropyrrolo[3,4-f]isoindol-2(1H)-yl)piperidine-2,6-dione]",B (“B”: 10-100 nM)
10,"C[C@@H]1Cc2c([nH]c3ccccc23)[C@@H](c2c(F)cc(N3CCC(N4CCC(N5Cc6cc7c(cc6C5)C(=O)N(C5CCC(=O)NC5=O)C7=O)CC4)CC3)cc2F)N1CC(F)F (stereo partly drawn) [Compound B30, 6-(1′-(4-((1R,3R)-2-(2,2-difluoroethyl)-3-methyl-2,3,4,9-tetrahydro-1H-pyrido[3,4-b]indol-1-yl)-3,5-difluorophenyl)-[1,4′-bipiperidin]-4-yl)-2-(2,6-dioxopiperidin-3-yl)-6,7-dihydropyrrolo[3,4-f]isoindole-1,3(2H,5H)-dione]",C (“C”: >100 nM)
11,"C[C@@H]1Cc2c([nH]c3ccccc23)[C@@H](c2c(F)cc(N3CCC(N4Cc5cc6c(cc5C4)C(=O)N(C4CCC(=O)NC4=O)C6=O)CC3)cc2F)N1CC(F)F (stereo partly drawn) [Compound B31, 6-(1-(4-((1R,3R)-2-(2,2-difluoroethyl)-3-methyl-2,3,4,9-tetrahydro-1H-pyrido[3,4-b]indol-1-yl)-3,5-difluorophenyl)piperidin-4-yl)-2-(2,6-dioxopiperidin-3-yl)-6,7-dihydropyrrolo[3,4-f]isoindole-1,3(2H,5H)-dione]",C (“C”: >100 nM)
12,"C[C@@H]1Cc2c([nH]c3ccccc23)[C@@H](c2c(F)cc(N3CCC(CN4Cc5cc6c(cc5C4)C(=O)N(C4CCC(=O)NC4=O)C6=O)CC3)cc2F)N1CC(F)F (stereo partly drawn) [Compound B32, 6-((1-(4-((1R,3R)-2-(2,2-difluoroethyl)-3-methyl-2,3,4,9-tetrahydro-1H-pyrido[3,4-b]indol-1-yl)-3,5-difluorophenyl)piperidin-4-yl)methyl)-2-(2,6-dioxopiperidin-3-yl)-6,7-dihydropyrrolo[3,4-f]isoindole-1,3(2H,5H)-dione]",C (“C”: >100 nM)
